Among the data in patent US20240398781A1, “SPIROCYCLIC CYCLIC MODULATORS OF CHOLESTEROL BIOSYNTHESIS AND THEIR USE FOR PROMOTING REMYELINATION” (GENENTECH, INC., priority 2021, published 2024) are Ki and EC50 values, retold here.

In assay [1] the target is human emopamil binding protein and human 7-dehydrocholesterol reductase co-expressing cells (hEBP-DHCR7 membrane) (Homo sapiens (Human), UniProt Q15125). Nature of the assay: Radioligand filter binding assay on hEBP-DHCR7 membrane. The settings on record: [3H]-(S)-6-(2-Methyl-3-(6-(trifluoromethyl)pyridin-3-yl)propyl)-2-thia-6-azaspiro[3.4]octane 2,2-dioxide radioligand, HEK293 membrane co-expressing hEBP and hDHCR7. The method, then:
Membrane Preparation: human emopamil binding protein and human 7-dehydrocholesterol reductase co-expressing cells were generated by transient transfecting host human embryonic kidney (HEK) 293 cells with 2 DNA constructs containing each protein's coding sequence. Cells were suspension cultured at 37° C. with 5% CO2 in […] 293 Expression Medium (Thermofisher). Whole cell membrane was prepared by harvesting the cell pellet, adding cold membrane buffer (50 mM Tris, pH7.5, lx Roche COMPLETE EDTA-free protease inhibitor cocktail) 10 times volume of the cell pellets weight, lysing cell pellet on ice by using Dounce homogenizer, spinning at 200 g 4° C. for 15 min, collecting supernatant and spinning again at 25000 g 4° C. for 50 min, transferring pellet to Dounce homogenizer, re-suspending pellet by homogenizing in membrane buffer on ice to reach ˜25 mg/mL, then keeping whole cell membrane aliquots at −80° C.
Compounds were prepared in a 96-well U bottom plate using an Echo550 machine and 10 mM compound DMSO stock solution, followed by an 8-dose 5-fold serial dilutions protocol with final testing compound concentration ranging from 0.06 to 5000 nM, with DMSO back fill to 100 nL/well and n=2. […] The UniFilter-96 GF/B plates were pre-treated by adding 50 μl/well of 0.3% (v/v) PEI to UniFilter-96 GF/B plates. The plates were sealed and incubated at 4° C. for 3 hrs. Then, the plates were washed with ice-cold assay buffer 3 times. The radioligand binding assay was prepared by adding assay buffer diluted hEBP-DHCR7 membrane at 66.7 μg/ml×150 μl/well into the 96-well compound plate to reach 10 μg membrane per well. Then, the assay buffer diluted [3H]—(S)-6-(2-Methyl-3-(6-(trifluoromethyl)pyridin-3-yl)propyl)-2-thia-6-azaspiro[3.4] octane 2,2-dioxide was added at 25 nM×50 μl/well. Following this, the plate was centrifuged at 1000 rpm for 30 secs. The plate was then sealed and agitated at 600 rpm at 22° C. for 5 min, and then incubated at 22° C. for 3 hrs. The incubation was stopped by transferring the binding solution to the pre-treated UniFilter-96 GF/B plate, vacuum filtrated, and then washed four times with ice-cold assay buffer. Following this, the plates were dried at 37° C. for 45 min. The plates were then sealed at the bottom. 40 μl/well of scintillation cocktail was added to the plates. A MicroBeta2 microplate counter was then used to read the plate and analyze the data. For reference and test compounds, the results are expressed as % Inhibition, using the normalization equation: N=100−100×(U−C2)/(C1−C2), where U is the unknown value, C1 is the average of high controls, and C2 is the average value of low controls. The IC50 was determined by fitting percentage of inhibition as a function of compound concentrations with Hill equation using XLfit. Results are expressed as hEBP-DHCR7 Ki (uM) in Table 4. Ki was calculated as described above. The asterix (*) indicates an isolated isomer or isolated group of isomers, but that the stereochemistry has not been assigned.

In assay [2] the test system is EBP (zymostenol accumulation in EpiSC-derived OPCs). The assay is described as follows: GC/MS-based sterol profiling, zymostenol accumulation in OPCs. The assay is classed as cell-based, mouse. The settings on record: Mus musculus, 24 h, EpiSC-derived OPCs, 24 hr treatment, 8 doses from 0.15 nM to 333 nM; read-out: Zymostenol GCMS EC50. The method, then: To assess effects of treatments on OPCs, all treatments were assayed in two or more independent platings of epiblast stem cell-derived OPCs ([…]-derived OPCs were obtained using in vitro differentiation protocols and culture conditions described previously (Najm et al, 2011, Nature Methods). OPCs were expanded and frozen down in aliquots. OPCs were thawed into growth conditions for at least one passage before use in further assays. Sterols were monitored using a modified Folch wash protocol (Hubler et al, 2018, Nature). EpiSC-derived OPCs were plated at 100,000 cells per well in PO- and laminin-coated 96-well plates in N2B27 media without growth factors. After 24 hours, cells were rinsed with saline and plates were frozen. Cholesterol-d7 standard was then added to each well before drying under nitrogen stream and derivatization with 55 μl of bis(trimethylsilyl) trifluoroacetamide. After derivatization, 2 μl were analyzed by gas chromatography/mass spectrometry using an Agilent 5973 Network Mass Selective Detector equipped with a 6890 gas chromatograph system and a HP-5MS capillary column (30 m×0.25 mm×0.25 mm). Samples were analyzed in full scan mode using electron impact ionization; ion fragment peaks were integrated to calculate sterol abundance, and quantitation was relative to cholesterol-d7. […] All standards were obtained from Avanti Polar Lipids unless otherwise indicated. Calibration curves were generated by injecting varying concentrations of sterol standards and maintaining a fixed amount of cholesterol-D7. For normalized zymostenol accumulation results, the total amount of zymostenol measured after drug treatment was divided by the total amount of zymostenol accumulated after 24 hr treatment with 100 nM positive control reference.

Another assay concerns EpiSC-derived OPCs. The assay is described as follows: In vitro phenotypic screening of OPCs (MBP staining, high-content imaging). The assay is classed as cell-based, mouse. Particulars: Mus musculus, 72 h, percentage of MBP+ oligodendrocytes, 3 days, 0.5 nM to 1000 nM; read-out: OPC EC50. The method, then: To assess effects of treatments on OPCs, all treatments were assayed in two or more independent platings of epiblast stem cell-derived OPCs (EpiSC). EpiSC-derived OPCs were obtained using in vitro differentiation protocols and culture conditions described previously (Najm et al, 2011, Nature Methods). OPCs were expanded and frozen down in aliquots. OPCs were thawed into growth conditions for at least one passage before use in further assays.
EpiSC-derived OPCs were grown and expanded in poly-L-ornithine (PO) and laminin-coated flasks in N2B27 media (DMEM/F12 (Gibco), N2-MAX (R&D Systems), B-27 (ThermoFisher), and GlutaMax (Gibco)) supplemented with FGF2 ([…], R&D systems, 233-FB-025) and PDGF-AA ([…], R&D systems, 233-AA-050) before harvesting for experiments. The cells were seeded onto poly-L-ornithine or poly-D-lysine coated CellCarrier Ultra plates (PerkinElmer) coated with laminin (Sigma, L2020) at a density of 150,000/cm^2 in N2B27 media without growth factors. For dose-response testing, a 1000× compound stock in dimethyl sulphoxide (DMSO) was added to assay plates, resulting in 8-point dose curves with final concentrations between 1000 nM and 0.5 nM. Positive controls and DMSO vehicle controls were included in each assay plate. Cells were incubated under standard conditions (37° C., 5% CO2) for 3 days and fixed with 4% paraformaldehyde (PFA) in phosphate buffered saline (PBS) for 20 min. Fixed plates were washed with PBS, permeabilized with 0.1% Triton X-100, and blocked with 10% donkey serum (v/v) in PBS for 40 min. Then, cells were labelled with MBP antibodies (Abcam, ab7349; 1:200) for 2 h at room temperature, washed with PBS, and stained with Alexa Fluor conjugated secondary antibodies (1:500) for 45 min. Nuclei were visualized by DAPI staining (Sigma; 1 μg/ml), followed by further PBS washes.
Cells and cell culture plates were imaged on the Operetta High Content Imaging and Analysis system (PerkinElmer). Analysis (PerkinElmer Harmony and Columbus software) began by identifying intact nuclei stained by DAPI. The peri-nuclear region of each cell was then cross-referenced with the mature myelin protein (MBP) stain to identify oligodendrocyte nuclei, and from this the percentage of oligodendrocytes was calculated. EC50 values were calculated using The Levenberg-Marquardt algorithm to fit a Hill equation to dose-response data (0.5 nM to 1000 nM).

Chain of human emopamil binding protein and human 7-dehydrocholesterol reductase co-expressing cells (hEBP-DHCR7 membrane) (Q15125 whole entry): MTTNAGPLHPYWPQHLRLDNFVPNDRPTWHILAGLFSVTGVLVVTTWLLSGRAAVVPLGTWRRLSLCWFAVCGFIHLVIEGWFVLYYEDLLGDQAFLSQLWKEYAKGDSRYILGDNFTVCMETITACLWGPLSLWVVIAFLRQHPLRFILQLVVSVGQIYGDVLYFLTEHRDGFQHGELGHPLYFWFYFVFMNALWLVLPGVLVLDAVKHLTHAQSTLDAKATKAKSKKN

In general, Ki refers to a dissociation constant, usually derived from enzyme kinetics or from competition with a known ligand. Higher therefore signals a looser hold on the target. The term EC50 denotes the concentration that produces a half-maximal response. The compound `O=S1(=O)CC2(CCN([C@H]3CC[C@@H](c4nc(-c5cccc(C(F)(F)F)n5)nn4C4CC4)C3)CC2)C1` (single isomer, unassigned) [42A*] showed an inhibition constant Ki in assay [1] of 570 nM. Moreover, the EC50 is 43 nM in assay [2] and 93 nM in the assay with EpiSC-derived OPCs.
The like results for `O=S1(=O)CC2(CCN([C@@H]3CC[C@@H](c4nc(-c5cccc(C(F)(F)F)n5)nn4C4CC4)C3)CC2)C1` (single isomer, unassigned) [42B*] were, in that order, 390 nM, 58 nM and 180 nM.
The like results for `CC(C)n1nc(-c2cccc(C(F)(F)F)n2)cc1[C@@H]1CC[C@@H](N2CCC3(CC2)CS(=O)(=O)C3)C1` (single isomer, unassigned) [46A*] were, in that order, 31 nM, 1.3 nM and 2.5 nM.
In turn, `CC(C)n1nc(-c2cccc(C(F)(F)F)n2)cc1[C@@H]1CC[C@H](N2CCC3(CC2)CS(=O)(=O)C3)C1` (single isomer, unassigned) [46B*] registered a Ki in assay [1] of 35 nM. The EC50 stood at 2.7 nM in assay [2] and 4.9 nM in the assay on EpiSC-derived OPCs.
The corresponding values for `CC(C)n1nc(-c2cccc(C(F)(F)F)n2)cc1[C@H]1CC[C@@H](N2CCC3(CC2)CS(=O)(=O)C3)C1` (single isomer, unassigned) [46C*] are 13 nM, 1.7 nM and 5.2 nM.
In assay [1], `CC(C)n1nc(-c2cccc(C(F)(F)F)n2)cc1[C@H]1CC[C@H](N2CCC3(CC2)CS(=O)(=O)C3)C1` (single isomer, unassigned) [46D*] returned a Ki of 12 nM. Moreover, the EC50 in assay [2] was determined as 1.1 nM; in the assay on EpiSC-derived OPCs it was 2.4 nM.
The corresponding values for `CC(C)n1nc(-c2ccc(C(F)(F)F)cc2)nc1[C@H]1CC[C@H](N2CCC3(C2)CS(=O)(=O)C3)C1` (single isomer, unassigned) [53A*] are 12 nM, 1.2 nM and 2.3 nM.
For the compound `CC(C)n1nc(-c2ccc(C(F)(F)F)cc2)nc1[C@H]1CC[C@@H](N2CCC3(C2)CS(=O)(=O)C3)C1` (single isomer, unassigned) [53B*], the affinity in assay [1] corresponds to a Ki of 9.9 nM. The values for the EC50 (in assay [2]; with EpiSC-derived OPCs) were 0.89 nM and 2.4 nM, respectively.
The like results for `CC(C)n1nc(-c2ccc(C(F)(F)F)cc2)nc1[C@@H]1CC[C@@H](N2CCC3(C2)CS(=O)(=O)C3)C1` (single isomer, unassigned) [53D*] were, in that order, 96 nM, 1 nM and 3.3 nM.
On to `O=S1(=O)CC[C@@]2(CCCN([C@H]3CC[C@@H](c4ccc(C(F)(F)F)nc4)CC3)C2)C1` (single isomer, unassigned) [71A*], for which the EC50 in assay [2] came to 6 nM; in the assay on EpiSC-derived OPCs, 19 nM.
On to `CC(C)n1nc(C(F)(F)F)cc1[C@H]1CC[C@@H](N2CCC[C@@]3(CCS(=O)(=O)C3)C2)CC1` (single isomer, unassigned) [91A*], for which the EC50 in assay [2] amounted to 3.4 nM; with EpiSC-derived OPCs, 9.4 nM.
The corresponding values for `O=S1(=O)CC2(CCN([C@H]3CC[C@H](c4ccc(C(F)(F)F)cn4)CC3)C2)C1` [Compound 49, 6-((1r,4r)-4-(5-(Trifluoromethyl)pyridin-2-yl)cyclohexyl)-2-thia-6-azaspiro[3.4]octane 2,2-dioxide] are 9.9 nM and 15 nM.
Turning to `O=S1(=O)CC2(CCN([C@H]3CC[C@H](c4ccc(C(F)(F)F)cn4)CC3)CC2)C1` [Compound 50A, 7-((1r,4r)-4-(5-(Trifluoromethyl)pyridin-2-yl)cyclohexyl)-2-thia-7-azaspiro[3.5]nonane 2,2-dioxide], the figures for the concentration for a half-maximal effect (EC50) (in assay [2]; in the assay on EpiSC-derived OPCs) were 26 nM and 29 nM, respectively.
The corresponding values for `O=S1(=O)CC2(CCN([C@H]3CC[C@@H](c4ccc(C(F)(F)F)cn4)CC3)CC2)C1` [Compound 50B, 7-((1s,4s)-4-(5-(trifluoromethyl)pyridin-2-yl)cyclohexyl)-2-thia-7-azaspiro[3.5]nonane 2,2-dioxide] are 32 nM and 45 nM.
Consider `O=S1(=O)CC2(CCN([C@H]3CC[C@H](c4cnc(C(F)(F)F)c(F)c4)CC3)C2)C1` [Compound 72A, 6-((1r,4r)-4-(5-fluoro-6-(trifluoromethyl)pyridin-3-yl)cyclohexyl)-2-thia-6-azaspiro[3.4]octane 2,2-dioxide], for which the 50% effective concentration (EC50) is 9.4 nM in assay [2] and 18 nM in the assay with EpiSC-derived OPCs.
The like results for `O=S1(=O)CC2(CCN([C@H]3CC[C@@H](c4ccnc(C(F)(F)F)c4)CC3)CC2)C1` [Compound 90A, 7-((1s,4s)-4-(2-(Trifluoromethyl)pyridin-4-yl)cyclohexyl)-2-thia-7-azaspiro[3.5]nonane 2,2-dioxide] were, in that order, 31 nM and 240 nM.
The like results for `O=S1(=O)CC2(CCN([C@H]3CC[C@@H](c4ccc(C(F)(F)F)cn4)CC3)C2)C1` [Compound 96, 6-((1s,4s)-4-(5-(Trifluoromethyl)pyridin-2-yl)cyclohexyl)-2-thia-6-azaspiro[3.4]octane 2,2-dioxide] were, in that order, 71 nM and 110 nM.
